The results in this text go back to PubChem BioAssay (NCI).

Some test systems named below: U251 CNS; SF-268 CNS; UACC-62 melanoma; MALME-3M melanoma; RXF 393 renal; OVCAR-3 ovarian; MDA-N; SNB-75 CNS; CCRF-CEM leukemia; CAKI-1 renal; SW-620 colon; NCI-H460 lung; NCI-H226 lung; OVCAR-8 ovarian; 786-0 renal; SK-OV-3 ovarian; UO-31 renal; SR leukemia.
What all share (test): NCI-60 cell line screen, 48 h

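Where inhibition never reached the appropriate level, the endpoint shown equals the highest concentration tested. Otherwise, values were interpolated linearly from a five-concentration, 48-hour dose response in 96-well plates. GI50 = concentration required for 50% inhibition of growth. TGI: total growth inhibition.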

As for `O=C(O)CC/C(=N\Nc1nsc2ccccc12)c1ccc(Cl)cc1`, the TGI with U251 CNS is 82.4 µM; with SF-268 CNS, > 89.3 µM; in the assay with UACC-62 melanoma, 50.6 µM; with MALME-3M melanoma, > 100 µM; in the assay on RXF 393 renal, > 53.7 µM; in the assay with OVCAR-3 ovarian it was 47.2 µM. Besides, the TGI in the assay with MDA-N is > 100 µM; in the assay with SNB-75 CNS, 73.1 µM; with CCRF-CEM leukemia it was > 54.6 µM; in the assay with CAKI-1 renal, 52.2 µM; in the assay on SW-620 colon, > 87.8 µM; in the assay on NCI-H460 lung, > 81.5 µM. Besides, the TGI was > 100 µM in the assay on NCI-H226 lung; > 100 µM in the assay on OVCAR-8 ovarian; > 100 µM in the assay with 786-0 renal; 89.6 µM in the assay on SK-OV-3 ovarian; > 67.1 µM in the assay with UO-31 renal.

Take `CC(=O)Oc1cc2c(cc1OC(C)=O)[C@H]1CC[C@]3(C)[C@@H](OC(C)=O)CC[C@H]3[C@@H]1CC2`: the TGI in the assay with U251 CNS amounted to 17.6 µM; with SF-268 CNS it was 22.5 µM; with UACC-62 melanoma, 13.1 µM; with RXF 393 renal it was 16.5 µM; in the assay with OVCAR-3 ovarian, 7.88 µM; in the assay with MDA-N, 16.5 µM. Also, the TGI was found to be 4.42 µM in the assay on SNB-75 CNS; 12.5 µM in the assay on CAKI-1 renal; 15.4 µM in the assay with SW-620 colon; 20.6 µM in the assay on NCI-H460 lung; 28 µM in the assay on OVCAR-8 ovarian; 18.9 µM in the assay on 786-0 renal. Moreover, the results for the TGI in the assay on SR leukemia, with SK-OV-3 ovarian and with UO-31 renal were 5.77 µM, 21.7 µM and 13 µM, respectively. Moreover, in the assay with UACC-62 melanoma, the GI50 was 2.48 µM.

Take `c1cncc(-c2ncc3cccnc3n2)c1`: the TGI in the assay on U251 CNS, in the assay on UACC-62 melanoma, with MALME-3M melanoma, with RXF 393 renal, in the assay with OVCAR-3 ovarian and in the assay with MDA-N was > 100 µM throughout. Besides, the TGI in the assay on SNB-75 CNS, in the assay on CCRF-CEM leukemia, in the assay with CAKI-1 renal, with SW-620 colon, with NCI-H460 lung and in the assay with NCI-H226 lung was > 100 µM each time. Also, the TGI in the assay with OVCAR-8 ovarian, in the assay on 786-0 renal, with SK-OV-3 ovarian and in the assay with UO-31 renal was > 100 µM each time.

In the case of `O=C(O)c1ccc(C(c2c(O)c3ccccc3oc2=O)c2c(O)c3ccccc3oc2=O)cc1`, the TGI with U251 CNS, in the assay on SF-268 CNS, in the assay with UACC-62 melanoma, in the assay with RXF 393 renal, with OVCAR-3 ovarian and in the assay on MDA-N was > 100 µM in each case. The TGI with CCRF-CEM leukemia, in the assay on CAKI-1 renal, in the assay on SW-620 colon, in the assay on NCI-H460 lung, in the assay on OVCAR-8 ovarian and in the assay with 786-0 renal was > 100 µM throughout. Also, the TGI in the assay with SR leukemia, in the assay on SK-OV-3 ovarian and with UO-31 renal was > 100 µM each time.

Regarding `Cc1c2c(n(Cc3ccccn3)c1C)NN=C(C#N)S2(=O)=O`, the TGI with U251 CNS, with SF-268 CNS, in the assay with UACC-62 melanoma, in the assay with OVCAR-3 ovarian, in the assay on MDA-N and in the assay on SNB-75 CNS was > 100 µM throughout. Further, the TGI in the assay on CAKI-1 renal, with SW-620 colon, in the assay with NCI-H460 lung, in the assay with NCI-H226 lung, in the assay with OVCAR-8 ovarian and in the assay on 786-0 renal was > 100 µM in each case. Further, the TGI in the assay on SR leukemia, in the assay on SK-OV-3 ovarian and in the assay with UO-31 renal was > 100 µM each time.

As to `COc1cc([C@@H]2c3[nH]c4ccccc4c3C(Nc3ccc([N+](=O)[O-])cc3)[C@H]3COC(=O)N23)cc(OC)c1O` (stereo not given in full), the TGI in the assay on U251 CNS amounted to 1.4 µM; in the assay with SF-268 CNS, 5.35 µM; with UACC-62 melanoma, 1.17 µM; in the assay with MALME-3M melanoma, 1.31 µM; with RXF 393 renal, 1.04 µM; in the assay with OVCAR-3 ovarian it was 1.98 µM. Further, the TGI with MDA-N was determined as 2.81 µM; in the assay with SNB-75 CNS, 1.66 µM; with CCRF-CEM leukemia it was 0.325 µM; with CAKI-1 renal, 2.11 µM; in the assay with NCI-H460 lung, 1.44 µM; in the assay with NCI-H226 lung, 0.532 µM. Besides, the TGI was 0.86 µM in the assay with OVCAR-8 ovarian, 0.665 µM in the assay on 786-0 renal, 2.31 µM in the assay with SK-OV-3 ovarian and 3.22 µM in the assay with UO-31 renal.

With `CC(NC(=O)OC(C)(C)C)C(=O)C(N)=O` (stereo not given), the TGI with U251 CNS, with SF-268 CNS, with MDA-N, in the assay on SNB-75 CNS, with CCRF-CEM leukemia and in the assay with SW-620 colon was > 100 µM each time. Besides, the TGI with NCI-H460 lung, with NCI-H226 lung, with OVCAR-8 ovarian, in the assay with 786-0 renal, in the assay on SR leukemia and in the assay with SK-OV-3 ovarian was > 100 µM each time. Moreover, the TGI with UO-31 renal was > 100 µM.

As for `CN(CCCCN(C)CCc1ccc(Cl)c(Cl)c1)CCCCN1CCCC1`, the TGI was determined as 1.97 µM in the assay with U251 CNS; 3.12 µM in the assay with SF-268 CNS; 3.42 µM with UACC-62 melanoma; 3.46 µM with MALME-3M melanoma; 3.03 µM in the assay with RXF 393 renal; 4.34 µM with OVCAR-3 ovarian. The TGI in the assay with MDA-N is 2.64 µM; in the assay with SNB-75 CNS it was 3.72 µM; in the assay with CCRF-CEM leukemia, 0.39 µM; in the assay with CAKI-1 renal, 3.13 µM; in the assay on SW-620 colon it was 3.02 µM; in the assay on NCI-H460 lung, 2.98 µM. In addition, the TGI in the assay on NCI-H226 lung is 4.01 µM; in the assay with OVCAR-8 ovarian, 6.25 µM; in the assay on 786-0 renal, 2.55 µM; with SK-OV-3 ovarian, 6.05 µM; in the assay with UO-31 renal, 0.96 µM.

For `COc1cccc(N2C(=O)CSC2c2cc(OC)c(OC)c(OC)c2)c1` (stereo not given), the TGI in the assay on U251 CNS is > 100 µM; with SF-268 CNS, > 100 µM; with UACC-62 melanoma it was > 100 µM; in the assay with OVCAR-3 ovarian it was 66.2 µM; in the assay on MDA-N it was 37.1 µM; in the assay on CCRF-CEM leukemia, 65 µM. Further, the TGI is > 100 µM in the assay with CAKI-1 renal; > 100 µM in the assay on SW-620 colon; > 100 µM in the assay with NCI-H460 lung; 87.2 µM with NCI-H226 lung; > 100 µM with OVCAR-8 ovarian; > 100 µM in the assay on 786-0 renal. The TGI in the assay on SR leukemia, with SK-OV-3 ovarian and in the assay with UO-31 renal was > 100 µM in each case.
